According to patent publication US20260285850A1, “SUBSTITUTED OXAZOLIDINONES AND IMIDAZOLINONES AS HERBICIDES” (FMC CORPORATION, priority 2023, published 2026):

What was measured:
Format in all cases: in vivo
[1] = tested on: wheat (Triticum aestivum); assay: Test A preemergence soil spray, visual injury rating 0-100; details: 10 days
In short: (§1)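 Seeds sown in loam-sand blend got a preemergence directed soil spray, or emerged plants (2-10 cm, one- to two-leaf) got a postemergence spray, of compound in non-phytotoxic solvent with surfactant. After 10 days in greenhouse, injury rated visually versus untreated controls on a 0 (no effect) to 100 (complete control) scale.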

corn (Zea mays) [2] = assay: as above; details: 10 days
In short: as §1

soybean (Glycine max) [3] = assay: as above; details: 10 days
In short: as §1

kochia (Bassia scoparia) [4] = assay: as above; details: 10 days
In short: as §1

[5] = tested on: green foxtail (Setaria viridis); assay: as above; details: 10 days
In short: as §1

[6] = tested on: palmer (palmer amaranth, palmer pigweed, Amaranthus palmeri); assay: as above; details: 10 days
In short: as §1

[7] = tested on: ragweed (common ragweed, Ambrosia artemisiifolia); assay: as above; details: 10 days
In short: as §1

[8] = tested on: ryegrass, Italian (italian ryegrass, Lolium multiflorum); assay: as above; details: 10 days
In short: as §1

[9] = tested on: barnyardgrass (Echinochloa crus-galli); assay: as above; details: 10 days
In short: as §1

[10] = tested on: blackgrass (Alopecurus myosuroides); assay: as above; details: 10 days
In short: as §1

[11] = tested on: oat, wild (wild oat, Avena fatua); assay: as above; details: 10 days
In short: as §1

[12] = tested on: wheat (Triticum aestivum); assay: Test A postemergence application, visual injury rating 0-100
In short: as §1

corn (Zea mays) [13] = assay: as above
In short: as §1

soybean (Glycine max) [14] = assay: as above
In short: as §1

kochia (Bassia scoparia) [15] = assay: as above
In short: as §1

[16] = tested on: horseweed (Erigeron canadensis); assay: as above
In short: as §1

[17] = tested on: green foxtail (Setaria viridis); assay: as above
In short: as §1

[18] = tested on: palmer (palmer amaranth, palmer pigweed, Amaranthus palmeri); assay: as above
In short: as §1

[19] = tested on: ragweed (common ragweed, Ambrosia artemisiifolia); assay: as above
In short: as §1

[20] = tested on: ryegrass, Italian (italian ryegrass, Lolium multiflorum); assay: as above
In short: as §1

[21] = tested on: barnyardgrass (Echinochloa crus-galli); assay: as above
In short: as §1

[22] = tested on: blackgrass (Alopecurus myosuroides); assay: as above
In short: as §1

[23] = tested on: oat, wild (wild oat, Avena fatua); assay: as above
In short: as §1

[24] = tested on: ducksalad (Heteranthera limosa); assay: Test B flooded paddy test, visual plant response rating 0-100; details: 250 g ai/ha, Flood, applied to paddy water, evaluated after 13 days
In short: (§2)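 Plants were grown to the 2-leaf stage, then pots were flooded to 3 cm above the soil and compound was applied directly to the paddy water, with that depth kept throughout.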

rice (Oryza sativa) = assay: as above; details: 250 g ai/ha, Flood, applied to paddy water, evaluated after 13 days
In short: as §2

[25] = tested on: sedge, umbrella (small-flower umbrella sedge, Cyperus difformis); assay: as above; details: 250 g ai/ha, Flood, applied to paddy water, evaluated after 13 days
In short: as §2

[26] = tested on: barnyardgrass (Echinochloa crusgalli); assay: as above; details: 250 g ai/ha, Flood, applied to paddy water, evaluated after 13 days
In short: as §2

[27] = 62 g ai/ha, 0 = no effect, 100 = complete control
[28] = 62 g ai/ha, postemergence, 10 days, 0 = no effect, 100 = complete control
[29] = Postemergence, 16 g ai/ha, greenhouse 10 days, 0 no effect, 100 complete control

**Q.** How did the “Wheat plant response rating” value ([1]; 16 g ai/ha, 0 to 100 scale) turn out when `COC(=O)COC(=O)C1=CCC(NC(=O)C2(C)CN(c3cc(Cl)cc(Cl)c3)C(=O)O2)C1` (centres unmarked) [Compound 110] was run?
**A.** 40

**Q.** What about the “Wheat plant response rating (0-100)” value [1, 27] of the same molecule?
**A.** 80

**Q.** And the “Corn plant response rating” value (corn (Zea mays) [2]; 16 g ai/ha, 0 to 100 scale)?
**A.** 0

**Q.** And the “Corn plant response rating (0-100)” value (corn (Zea mays) [2]; [27])?
**A.** 30

**Q.** What about the “Soybean plant response rating” value (soybean (Glycine max) [3]; 16 g ai/ha, 0 to 100 scale) of the same molecule?
**A.** 10

**Q.** And the “Soybean plant response rating (0-100)” value (soybean (Glycine max) [3]; [27])?
**A.** 0

**Q.** What about the “Kochia plant response rating” value (kochia (Bassia scoparia) [4]; 16 g ai/ha, 0 to 100 scale) of the same molecule?
**A.** 0

**Q.** And the “Kochia plant response rating (0-100)” value (kochia (Bassia scoparia) [4]; [27])?
**A.** 0

**Q.** And the “Foxtail, Green plant response rating” value ([5]; 16 g ai/ha, 0 to 100 scale)?
**A.** 0

**Q.** What about the “Foxtail, Green plant response rating (0-100)” value [5, 27] of the same molecule?
**A.** 90

**Q.** What about the “Pigweed, Palmer plant response rating” value ([6]; 16 g ai/ha, 0 to 100 scale) of the same molecule?
**A.** 80

**Q.** And the “Pigweed, Palmer plant response rating (0-100)” value [6, 27]?
**A.** 100

**Q.** What about the “Ragweed plant response rating” value ([7]; 16 g ai/ha, 0 to 100 scale) of the same molecule?
**A.** 0

**Q.** What about the “Ragweed plant response rating (0-100)” value [7, 27] of the same molecule?
**A.** 0

**Q.** And the “Ryegrass, Italian plant response rating” value ([8]; 16 g ai/ha, 0 to 100 scale)?
**A.** 0

**Q.** And the “Ryegrass, Italian plant response rating (0-100)” value [8, 27]?
**A.** 60

**Q.** And the “Barnyardgrass plant response rating” value ([9]; 16 g ai/ha, 0 to 100 scale)?
**A.** 50

**Q.** And the “Barnyardgrass plant response rating (0-100)” value [9, 27]?
**A.** 100

**Q.** What about the “Blackgrass plant response rating” value ([10]; 16 g ai/ha, 0 to 100 scale) of the same molecule?
**A.** 0

**Q.** What about the “Blackgrass plant response rating (0-100)” value [10, 27] of the same molecule?
**A.** 30

**Q.** What about the “Oat, Wild plant response rating” value ([11]; 16 g ai/ha, 0 to 100 scale) of the same molecule?
**A.** 0

**Q.** What about the “Oat, Wild plant response rating (0-100)” value [11, 27] of the same molecule?
**A.** 0

**Q.** And the “Wheat plant response rating (0-100)” value [12, 28]?
**A.** 90

**Q.** What about the “Wheat plant response rating (0 to 100 scale)” value [12, 29] of the same molecule?
**A.** 50

**Q.** And the “Corn plant response rating (0-100)” value (corn (Zea mays) [13]; [28])?
**A.** 100

**Q.** And the “Corn plant response rating (0 to 100 scale)” value (corn (Zea mays) [13]; [29])?
**A.** 100

**Q.** What about the “Soybean plant response rating (0-100)” value (soybean (Glycine max) [14]; [28]) of the same molecule?
**A.** 70

**Q.** And the “Soybean plant response rating (0 to 100 scale)” value (soybean (Glycine max) [14]; [29])?
**A.** 30

**Q.** And the “Kochia plant response rating (0-100)” value (kochia (Bassia scoparia) [15]; [28])?
**A.** 90

**Q.** And the “Kochia plant response rating (0 to 100 scale)” value (kochia (Bassia scoparia) [15]; [29])?
**A.** 90

**Q.** And the “Horseweed plant response rating (0-100)” value [16, 28]?
**A.** 80

**Q.** And the “Horseweed plant response rating (0 to 100 scale)” value [16, 29]?
**A.** 70

**Q.** And the “Foxtail, Green plant response rating (0-100)” value [17, 28]?
**A.** 90

**Q.** And the “Foxtail, Green plant response rating (0 to 100 scale)” value [17, 29]?
**A.** 90

**Q.** And the “Pigweed, Palmer plant response rating (0-100)” value [18, 28]?
**A.** 100

**Q.** What about the “Pigweed, Palmer plant response rating (0 to 100 scale)” value [18, 29] of the same molecule?
**A.** 90

**Q.** What about the “Ragweed plant response rating (0-100)” value [19, 28] of the same molecule?
**A.** 80

**Q.** And the “Ragweed plant response rating (0 to 100 scale)” value [19, 29]?
**A.** 50

**Q.** And the “Ryegrass, Italian plant response rating (0-100)” value [20, 28]?
**A.** 70

**Q.** What about the “Ryegrass, Italian plant response rating (0 to 100 scale)” value [20, 29] of the same molecule?
**A.** 50

**Q.** And the “Barnyardgrass plant response rating (0-100)” value [21, 28]?
**A.** 100

**Q.** What about the “Barnyardgrass plant response rating (0 to 100 scale)” value [21, 29] of the same molecule?
**A.** 90

**Q.** And the “Blackgrass plant response rating (0-100)” value [22, 28]?
**A.** 100

**Q.** What about the “Blackgrass plant response rating (0 to 100 scale)” value [22, 29] of the same molecule?
**A.** 80

**Q.** What about the “Oat, Wild plant response rating (0-100)” value [23, 28] of the same molecule?
**A.** 30

**Q.** What about the “Oat, Wild plant response rating (0 to 100 scale)” value [23, 29] of the same molecule?
**A.** 20

**Q.** What about the “Plant response rating, Ducksalad (0 to 100 scale, 0 is no effect and 100 is complete control)” value [24] of the same molecule?
**A.** 95

**Q.** What about the “Plant response rating, Rice (0 to 100 scale, 0 is no effect and 100 is complete control)” value (rice (Oryza sativa)) of the same molecule?
**A.** 40

**Q.** And the “Plant response rating, Sedge, Umbrella (0 to 100 scale, 0 is no effect and 100 is complete control)” value [25]?
**A.** 98

**Q.** What about the “Plant response rating, Barnyardgrass (0 to 100 scale, 0 is no effect and 100 is complete control)” value [26] of the same molecule?
**A.** 60
